These are literature values, as cited in PMC11599114 (Viruses, 2024).

For orientation: EC50 means the midpoint of the concentration-response curve.

The series deals with influenza A virus(oseltamivir-resistant strain). Details: method as in ref 30447229. To be noted: MDCK.

As to KFFRKKSVKK [DRAVPe01822], the EC50 is 18.9 ± 7 µM.
